Results reported in patent publication US7888339B2, “2-methylene-20(21)-dehydro-19-nor-vitamin D analogs” (Wisconsin Alumni Research Foundation, priority 2008, dated 2011).

Legend:
HL-60 cells = test: HL-60 cell differentiation (nitro blue tetrazolium reduction); format: cell-based, human; settings: for EC50: HL-60 cells into monocytes, FIG. 2
Procedure: The study drugs were dissolved in ethanol and the concentrations determined using UV spectrophotometry. Serial dilutions were prepared so that a range of drug concentrations could be tested without changing the final concentration of ethanol (≦0.2%) present in the cell cultures.
Human promyelocytic leukemia (HL60) cells were grown in RPMI-1640 medium containing 10% fetal bovine serum. The cells were incubated at 37° C. in the presence of 5% CO2.
HL60 cells were plated at 1.2×10^5 cells/ml. Eighteen hours after plating, cells in duplicate were treated with drug. Four days later, the cells were harvested and a nitro blue tetrazolium reduction assay was performed (Collins et al., 1979; J. Exp. Med. 149:969-974). The percentage of differentiated cells was determined by counting a total of 200 cells and recording the number that contained intracellular black-blue formazan deposits. Verification of differentiation to monocytic cells was determined by measuring phagocytic activity (data not shown).

[1] = system: 24-hydroxylase (24Ohase) gene promoter in ROS 17/2.8 (bone) cells; test: In vitro transcription assay (24-hydroxylase gene promoter, luciferase reporter); format: cell-based; settings: ROS 17/2.8 cells, 24-hydroxylase promoter-luciferase; FIG. 3; read-out: EC50, transcriptional activity in bone cells
Procedure: Transcription activity was measured in ROS 17/2.8 (bone) cells that were stably transfected with a 24-hydroxylase (24Ohase) gene promoter upstream of a luciferase reporter gene (Arbour et al., 1998). Cells were given a range of doses. Sixteen hours after dosing the cells were harvested and luciferase activities were measured using a luminometer.
RLU=relative luciferase units.

[2] = system: bone calcium mobilization; test: Bone calcium mobilization (serum calcium) in vitamin D-deficient rats; format: in vivo, rat; settings: FIG. 4; for mobilization of bone calcium (serum calcium): ip, 4 consecutive days, rats on 0.02% Ca diet
Procedure: (§1) Male, weanling Sprague-Dawley rats were placed on Diet 11 (0.47% Ca) diet+AEK oil for one week followed by Diet 11 (0.02% Ca)+AEK oil for 3 weeks. The rats were then switched to a diet containing 0.47% Ca for one week followed by two weeks on a diet containing 0.02% Ca. Dose administration began during the last week on 0.02% calcium diet. Four consecutive ip doses were given approximately 24 hours apart. Twenty-four hours after the last dose, blood was collected from the severed neck and the concentration of serum calcium determined as a measure of bone calcium mobilization. The first 10 cm of the intestine was also collected for intestinal calcium transport analysis using the everted gut sac method.

[3] = system: intestinal calcium transport; test: Intestinal calcium transport (everted gut sac method) in vitamin D-deficient rats; format: in vivo, rat; settings: FIG. 5; for intestinal calcium transport: 260 pmol/day, ip, 4 consecutive days, everted gut sac
Procedure: as §1

[4] = target: T1, full-length recombinant rat vitamin D receptor (Rattus norvegicus, UniProt P13053); test: Vitamin D receptor competitive binding with [3H]-1,25(OH)2D3; settings: FIG. 1
T1 construct: Full-length recombinant rat receptor was expressed in E. coli; histidine tag (C); made in house; host or cells: E. coli BL21 (DE3) Codon Plus RIL
T1 sequence (P13053 1-423): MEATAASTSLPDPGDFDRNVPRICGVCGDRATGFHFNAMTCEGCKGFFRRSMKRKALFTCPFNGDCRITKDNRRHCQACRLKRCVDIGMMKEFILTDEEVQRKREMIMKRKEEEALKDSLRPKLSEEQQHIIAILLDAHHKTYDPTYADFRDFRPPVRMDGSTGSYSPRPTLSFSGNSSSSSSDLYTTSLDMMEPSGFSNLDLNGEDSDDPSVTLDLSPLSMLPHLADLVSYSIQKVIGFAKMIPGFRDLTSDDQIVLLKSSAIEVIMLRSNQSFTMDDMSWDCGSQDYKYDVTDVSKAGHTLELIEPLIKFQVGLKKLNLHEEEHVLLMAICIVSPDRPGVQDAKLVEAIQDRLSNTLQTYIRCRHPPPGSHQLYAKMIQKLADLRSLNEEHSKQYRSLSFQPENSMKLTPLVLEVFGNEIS
Procedure: Full-length recombinant rat receptor was expressed in E. coli BL21 (DE3) Codon Plus RIL cells and purified to homogeneity using two different column chromatography systems. The first system was a nickel affinity resin that utilizes the C-terminal histidine tag on this protein. The protein that was eluted from this resin was further purified using ion exchange chromatography (S-Sepharose Fast Flow). Aliquots of the purified protein were quick frozen in liquid nitrogen and stored at −80° C. until use. For use in binding assays, the protein was diluted in TEDK50 (50 mM Tris, 1.5 mM EDTA, pH7.4, 5 mM DTT, 150 mM KCl) with 0.1% Chaps detergent. The receptor protein and ligand concentration were optimized such that no more than 20% of the added radiolabeled ligand was bound to the receptor.
Radiolabeled and unlabeled ligands were added to 100 mcl of the diluted protein at a final ethanol concentration of ≦10%, mixed and incubated overnight on ice to reach binding equilibrium. The following day, 100 mcl of hydroxylapatite slurry (50%) was added to each tube and mixed at 10-minute intervals for 30 minutes. The hydroxylapaptite was collected by centrifugation and then washed three times with Tris-EDTA buffer (50 mM Tris, 1.5 mM EDTA, pH 7.4) containing 0.5% Titron X-100. […] Total binding was determined from the tubes containing only radiolabeled ligand.

Row | Ki ([4]; full-length recombinant rat VDR, read-out: Ki, competition with [3H]-1,25(OH)2D3 for binding to the vitamin D receptor) [pM] | VDR binding affinity compared to 1,25(OH)2D3 ([4]; in words) | EC50 (HL-60 cells; Homo sapiens) [pM] | Compound | EC50 (HL-60 cells) [pM] | EC50 [1] [pM] | mobilization of bone calcium (serum calcium) ([2]; 260 pmol/day) | intestinal calcium transport [3] | potency on HL-60 cell differentiation relative to 1,25(OH)2D3 (HL-60 cells; compared to 1,25(OH)2D3) [times] | mobilization of bone calcium (serum calcium) ([2]; 2340 pmol/day) | bone calcium mobilization activity compared to 1,25(OH)2D3 ([2]; in words) | intestinal calcium transport activity compared to 1,25(OH)2D3 ([3]; in words)
1 |  |  |  | C=C1/C(=C\C=C2/CCC[C@]3(C)[C@@H]([C@H](C)CCCC(C)(C)O)CC[C@@H]23)C[C@@H](O)C[C@@H]1O [1,25(OH)2D3, 1α,25-dihydroxyvitamin D3, reference compound] | 2000 | 300 | increased serum calcium levels | significant increase |  |  |  | 
2 | 100 | same affinity | 700 | C=C1[C@H](O)CC(=C/C=C2\CCC[C@]3(C)[C@@H](C(=C)CCCC(C)(C)O)CC[C@@H]23)C[C@H]1O [Vit III 20-21, 2-methylene-20(21)-dehydro-19-nor-1α,25-dihydroxyvitamin D3] |  | 2000 | did not result in mobilization of bone calcium | promotes intestinal calcium transport | 3 to 4 | substantial effect | less bone calcium mobilization activity | about the same activity
